{"source": "paper PMC11402852", "about": "“Genotoxicity of selected cannabinoids in human lymphoblastoid TK6 cells” (Archives of Toxicology, 2024)", "tested_on": "TK6 cells", "experiment": "Cell cycle analysis (flow cytometry, DAPI)", "assay_type": "cell-based, human", "details": "without S9, CBG 30 µM, CBD 15 µM, CBDV 40 µM", "description": "The cells were treated with CBG 30 µM, CBD 15 µM, CBC 15 µM, CBDV 40 µM, and CBN 15 µM for 6 or 24 h. The positive control was vincristine sulphate in a concentration of 0.0121 µM for 6 h of exposure and 0.0061 µM for 24 h. The solvent control was DMSO. Furthermore, experiments with the addition of S9 mix were performed with CBDV. In these experiments, cells were treated with CBDV (40 µM) with or without 0.25% S9 mix for 6 h. DMSO with or without the S9 mix was used as control, and the positive control was the same as mentioned above. After the treatment, cells were collected, washed twice with phosphate buffered saline (PBS) and fixed with 70% ethanol for 30 min on ice. Following each described step above, cells were centrifuged at 1000 rpm, 5 min, and 4 °C. Lastly, cells were resuspended in 1% bovine serum albumin (BSA) in PBS solution and stained with DAPI in a final concentration of 1 µg/mL for 30 min on ice. The cell distribution in different cell cycle phases was analyzed with MACSQuant® Analyzer 16 Flow Cytometer using a 450/50 nm filter and MACSQuantify™ Software 2.13 (Miltenyi Biotec, Bergisch Gladbach, Germany). For each sample, 20 000 events were analyzed. Four independent experiments were performed for 6 h of treatment without metabolic activation. Three independent experiments were done for 24 h of treatment without metabolic activation and 6 h of treatment with metabolic activation."}
{"smiles": "C=C(C)[C@@H]1CCC(C)=C[C@H]1c1c(O)cc(CCCCC)cc1O", "note": "[CBD, cannabidiol]", "values": [{"measurement": "Cell cycle distribution, 6 h", "setting": "6 h, CBC 15 µM, CBN 15 µM", "value": "no significant changes in the normal cell cycle distribution"}, {"measurement": "Cell cycle distribution, 24 h", "setting": "24 h", "value": "accumulation of cells in the G1 phase"}]}
